We go through one compound from patent US20110123617A1, “CLIOQUINOL FOR THE TREATMENT OF HEMATOLOGICAL MALIGNANCIES” (priority 2007, published 2011).

The subject of assay [1] is chymotrypsin-like activity of the proteasome. Description: Proteasome activity in cell lysates (Suc-LLVY-AMC cleavage). Type of assay: biochemical. As to conditions: cell lysates from leukemia and myeloma cell lines. Here is the method:
A) Proteasome activity of MDAY-D2 and JJN3 cellular extracts after two hours of treatment with clioquinol (CQ), CuCl2 (Cu), or an equimolar concentration of CQ and Cu. After treatment, the preferential chymotrypsin-like substrate Suc-LLVY-AMC was added and the rate of free AMC was measured over time with a florescent spectrophotometric plate reader (excitation=380 nm, emission=460 nm). B) Proteasome activity of intact MDAY-D2 and JJN3 cells after two hours of treatment with clioquinol (CQ), CuCl2 (Cu), or an equimolar concentration of CQ and Cu. After treatment, the preferential chymotrypsin-like substrate Suc-LLVY-AMC was added and the rate of free AMC was measured over time with a florescent spectrophotometric plate reader (excitation=380 nm, emission=460 nm). […] The chymotrypsin-like activity of the proteasome was measured by incubating equal amounts of protein with the preferential chymotrypsin-like substrate Suc-LLVY-AMC in assay buffer (50 mM Tris-HCl, pH 7.5, 150 mM NaCl) for two hours. After incubation, […] and the rate of free AMC was measured over time with a florescent spectrophotometric plate reader (excitation=380 nm, emission=460 nm). […] The chymotrypsin-like activity of the proteasome was measured by monitoring the rate of cleavage of the fluorescent substrate Suc-LLVY-AMC.

Assay [2] shares this test system. In words: Proteasome activity after treatment of intact cell lines. In kind it is cell-based. Particulars: intact leukemia and myeloma cell lines. Here is the method:
A) Proteasome activity of MDAY-D2 and JJN3 cellular extracts after two hours of treatment with clioquinol (CQ), CuCl2 (Cu), or an equimolar concentration of CQ and Cu. After treatment, the preferential chymotrypsin-like substrate Suc-LLVY-AMC was added and the rate of free AMC was measured over time with a florescent spectrophotometric plate reader (excitation=380 nm, emission=460 nm). B) Proteasome activity of intact MDAY-D2 and JJN3 cells after two hours of treatment with clioquinol (CQ), CuCl2 (Cu), or an equimolar concentration of CQ and Cu. After treatment, the preferential chymotrypsin-like substrate Suc-LLVY-AMC was added and the rate of free AMC was measured over time with a florescent spectrophotometric plate reader (excitation=380 nm, emission=460 nm). Cellular proteins were extracted from cells with lysis buffer (50 mM HEPES pH 7.5, 150 mM NaCl, 2 mM ATP, and 1% Triton X-100). The chymotrypsin-like activity of the proteasome was measured by incubating equal amounts of protein with the preferential chymotrypsin-like substrate Suc-LLVY-AMC in assay buffer (50 mM Tris-HCl, pH 7.5, 150 mM NaCl) for two hours. After incubation, […] and the rate of free AMC was measured over time with a florescent spectrophotometric plate reader (excitation=380 nm, emission=460 nm). […]

Take `[Cl][Cu][Cl]` [copper, CuCl2]: the “rate of Suc-LLVY-AMC cleavage” value in assay [1] is “inhibited the rate of Suc-LLVY-AMC cleavage”. The “chymotrypsin-like activity of the proteasome” value in assay [2] is “no effect on the function of proteasome”.
